According to patent US20140287460A1, “PRODUCTION OF R[…] IN INSECT CELLS USING A B[…]” (GBIOTECH SARL, priority 2011, published 2014):

Columns and labels:
[1] = system: bMON14272-pE2 infected SF21 cells; test: Baculovirus virion suppression test, end point dilution assay (Example 2); type: cell-based
From the text: FIG. 7: Example 2. A) Generation of composite baculovirus DNA containing expression cassettes X, Y, and Z as described in FIG. 6. Baculovirus DNA bMON14272 (left) contains expression cassette Z encoding native vp80 protein. The transfer vector pE2 (right) contains expression cassettes X and Y encoding the ecdysone activator protein and shRNA, respectively. In transfer vector pE2, direction of transcription 5′ to 3′ for expression cassettes X and Y is indicated by arrows. Promoter sequences pe38 for ecdysone activator and ie-2 minimal for shRNA are indicated as are the DNA binding sites for ecdysone activator protein. Fusion of the transfer vector pE2 and bMON14272 is carried out by Tn7 transposition (indicated by the dashed cross). B) Comparison of budded infectious virus production from inducible bMON14272-pE2 (left) and non-inducible bMON14272-pDual (right) in the presence and absence of inducer molecule RG-102240. Baculovirus infected SF21 cells are incubated for 72 hours in the presence, or absence of 0.5 μM RG-102240 (indicated by + or −, bottom). […] S.E.M of three measurements is indicated by dark bars on the top of the graphs.
Other algorithms may be analogously used. […] Expression cassette Y is under control of the ie2 minimal promoter (Protein Expression and Purification 42, 236-245).
Baculovirus virion suppression tests are carried out as follows. 10 milliliters of SF21 cells in suspension culture (Nature Methods 3, 1021-1032) at density 0.5×10^6 cells/ml are infected at multiplicity of infection (M.O.I) of 1.0 with either bMON14272-pE2 or bMON14272-pFastbac Dual initial transfection virus either in the presence, or absence of 0.5 μM RG-102240 (FIG. 7B). […]
(§1) Quantification of effectiveness of RG-102240-mediated suppression of generation of baculovirus virion through shRNA targeting of the essential virus capsid protein vp80 as described above is carried out by comparing the results of the end point dilution assay with and without RG-102240-mediated expression of shRNA. […]

[2] = system: bMON14272-pFastbac Dual infected SF21 cells; test: Baculovirus virion suppression test, end point dilution assay, negative control virus (Example 2); type: cell-based; conditions: addition of 0.5 μM RG-102240, SF21 cells, 72 hours, FIG. 7B right
From the text: FIG. 7: Example 2. A) Generation of composite baculovirus DNA containing expression cassettes X, Y, and Z as described in FIG. 6. Baculovirus DNA bMON14272 (left) contains expression cassette Z encoding native vp80 protein. The transfer vector pE2 (right) contains expression cassettes X and Y encoding the ecdysone activator protein and shRNA, respectively. In transfer vector pE2, direction of transcription 5′ to 3′ for expression cassettes X and Y is indicated by arrows. Promoter sequences pe38 for ecdysone activator and ie-2 minimal for shRNA are indicated as are the DNA binding sites for ecdysone activator protein. Fusion of the transfer vector pE2 and bMON14272 is carried out by Tn7 transposition (indicated by the dashed cross). B) Comparison of budded infectious virus production from inducible bMON14272-pE2 (left) and non-inducible bMON14272-pDual (right) in the presence and absence of inducer molecule RG-102240. Baculovirus infected SF21 cells are incubated for 72 hours in the presence, or absence of 0.5 μM RG-102240 (indicated by + or −, bottom). […]
as §1

[3] = induced with 0.5 μM RG-102240, SF21 cells, 72 hours

`CCc1c(OC)cccc1C(=O)NN(C(=O)c1cc(C)cc(C)c1)C(C)(C)C` [RG-102240] was tested. Which “reduction of virus titers relative to prior art systems (bMON14272-pFastbac Dual)” value [1, 3] did it give?
Its value is “more than three fold”.

What about the “reduction of virus titers relative to uninduced bMON14272-pE2” value [1, 3] of the same molecule?
The value was “more than three fold”.

And the “levels of budded virus production (infectious virus titre)” value ([1]; presence vs absence of 0.5 μM RG-102240, SF21 cells, M.O.I 1.0, 72 hours, FIG. 7B left)?
The value was “significantly reduced”.

What about the “effect on baculovirus virion production” value [2] of the same molecule?
Its value is “no statistically significant effect”.
